Results from article PMC3788796, “The Antimicrobial Domains of Wheat Puroindolines Are Cell-Penetrating Peptides with Possible Intracellular Mechanisms of Action” (PLoS ONE, 2013).
≈ marks a conversion by molar mass, not a printed value. Where “and” joins values, the source holds several entries; their conditions need not be identical. Equal values may be shown once.

What was measured:
[1] = test system: plasmid DNA (pBluescript SK+); test: Gel retardation assay for in vitro DNA binding; conditions: 100 ng plasmid DNA in 10 µL MilliQ water, 1 h room temperature, peptide 16–500 µg/mL, post-electrophoresis EtBr staining, triplicate assays; for Peptide concentration inducing gel retardation, Full: complete inhibition of migration
Description: This test assesses any peptide-DNA binding by noting the retardation of the rate of migration of DNA bands through agarose gels. A number of methods were tested. As per Hsu et al., DNA of a plasmid (200 ng) or a commercial molecular weight marker (50 ng) was mixed with a peptide (to final concentrations of 32, 64, 125 or 250 µg/mL) in 15 µL of 10 mM Tris-1 mM EDTA buffer (pH 8.0), incubated at room temperature for 2 min, then electrophoresed in 0.5% or 1.0% agarose gels containing 0.5 µg/mL ethidium bromide (EtBr). Following Park et al., 100 ng plasmid DNA was mixed with a peptide (to different concentrations) in 20 µL binding buffer (5% glycerol, 10 mM Tris-HCl (pH 8.0), 1 mM EDTA, 1 mM DTT, 20 mM KCl, 50 µg/mL BSA), held for 1 h at room temperature, then electrophoresed in EtBr-containing gels. Finally the protocols were modified to eliminate any interference of EtBr in the initial peptide-DNA binding. Plasmid DNA (100 ng) was mixed with a peptide (to final concentrations of 16, 32, 64, 125, 250 or 500 µg/mL) in 10 µL of MilliQ water, held at room temperature for 1 h and electrophoresed, followed by emersion of gels in EtBr solution (0.5 µg/mL) for 30 min before imaging.

E. coli (ATCC 25922) = test: E. coli filamentation assay (in vivo inhibition of DNA synthesis); type: cell-based, Escherichia coli; conditions: peptide 2–250 µg/mL, 3 h 37°C, Crystal Violet, light microscopy 1000×; triplicate
Description: The method as described was used to assess if the PIN-based peptides cause filamentation of E. coli cells, indicative of inhibition of in vivo DNA synthesis. E. coli (ATCC 25922) grown to logarithmic phase (OD600 = 0.2) was diluted to OD600 of ∼0.04. 75 µL of this culture was mixed with 25 µL of a peptide solution (to a final peptide concentration of 2–250 µg/mL) and incubated for 3 h at 37°C. 50 µL of the sample was spotted onto a glass slide, air dried, and stained with Crystal Violet for 1 min. Peptide mixed with water was used as negative control, and the Trp-rich AMP indolicidin (ILPWKWPWWPWRR-NH2) was used as a positive control due to its known filamentation effect. All samples were tested in triplicate. The cells were observed by light microscopy (1000×magnification).

[2] = test system: Saccharomyces cerevisiae (ATCC 287); test: MIC of the peptides against yeast cells; type: cell-based; conditions: PDB, 96-well two-fold dilution 250 to 2 µg/mL, 0.5–2×10^3 cells/mL, overnight 30°C, growth observed visually
Description: Saccharomyces cerevisiae (ATCC 287) was grown in Potato Dextrose Broth (PDB) overnight at 30°C with shaking at 220 rpm. The cultures were vortexed vigorously and the cell suspension adjusted to 1–5×10^6 cells/mL with PDB (McFarland standard 0.5) and then diluted 1∶200 with PDB to a final concentration of 0.5–2×10^3 cells/mL [37]. The MIC assays were carried out in 96-well plates as described previously. Peptides (PuroA, Pina-M, Pina-W→F and PuroB) in 25 µL volumes were added to the first empty well and a two-fold dilution was carried out across each row with a starting peptide concentration of 250 µg/mL and a final one of 2 µg/mL. Test wells were subsequently inoculated with 75 µL yeast cells (0.5–2×10^3 cells/mL) and incubated overnight at 30°C. Negative control (no peptide) and positive control (fungicide Mycobutanil) wells were also prepared. The MIC was defined as the lowest concentration of the peptide required to inhibit fungal growth, observed visually.

S. cerevisiae cells = test: Propidium iodide uptake by yeast cells; type: cell-based, Saccharomyces cerevisiae; conditions: peptide 125 µg/mL, 1 h 30°C in PBS pH 7.4, PI 6 µg/mL 5 min; no-peptide control 5.7; average of 4 fields, two independent experiments
Description: S. cerevisiae was grown overnight at 30°C in 100 mL PDB and the cells collected by centrifugation and resuspended in Phosphate Buffered Saline (PBS: 137 mM NaCl, 2.7 mM KCl, 8 mM Na2HPO4, 1.46 mM KH2PO4; pH 7.4) to ∼1.5×10^7 cells/mL (OD600 = 0.6–0.8). 75 µL of the suspension was incubated with 25 µL of stock solutions of PuroA, Pina-M, Pina-W→F, PuroB and indolicidin (to give a final peptide concentration of 64, 125, 250 or 500 µg/mL), or with PBS (for no-peptide controls) for 1 h at 30°C, followed by staining with propidium iodide (PI) as described. PI stock solution (60 µg/mL) was prepared in MilliQ water and stored in dark at −20°C. It was diluted to 12 µg/mL before use, mixed 1∶1 with peptide-treated or untreated yeast cells (to final PI concentration 6 µg/mL), and the samples incubated in the dark for 5 min. A 10 µL aliquot of these was examined using a Nikon Eclipse 50 i fluorescence microscope with 561 nm excitation and 630/22 emission filter, at 400×magnification. The photomicrographs were taken under light and fluorescence for each field. Five randomly selected fields were recorded and scored for each sample.

E. coli cells = conditions: data from previous work; cited from earlier work
[3] = Calcein dye leakage from bacteria-mimicking LUVs; type: biochemical; conditions: positive control, 1.0% Triton X100; average of duplicate experiments
Description: (§1) A calcein leakage assay as previously described was performed to determine the effects of PIN-based peptides on the permeability of synthetic large unilamellar vesicles (LUVs), designed to mimic bacterial and mammalian cell membranes. The phospholipids used were DOPC (1,2-dioleoyl-sn-glycero-3-phosphocholine), with zwitterionic head groups and DOPG (1,2-dioleoyl-sn-glycerol-3-[phosphor-rac-(1-glycerol)]), with negatively charged headgroups (Avanti® Polar lipids, Alabaster, USA). These were used to make DOPC:DOPG (1∶3) LUVs to mimic bacterial cell membranes, or DOPC only, to mimic mammalian cell membranes. Calcein-entrapped LUVs were prepared by the extrusion method using an Avanti mini extrusion apparatus (Avanti® Polar Lipids, Alabaster, USA). The DOPC:DOPG (a 1∶3 mixture) or DOPC were dissolved in chloroform (25 mg/mL) and aliquoted into glass test tubes to give a concentration of 2.6 mM when resuspended in 2 mL buffer. Chloroform was evaporated under a stream of N2 and the lipid films were dried overnight under vacuum. The films were then resuspended in 2.0 mL of 70 mM calcein buffer (in 10 mM Tris-HCl, pH 7.4) and incubated at room temperature for 30 minutes. To increase entrapment of the dye, five repeated freeze\thaw cycles were used by placing the vial in liquid N2 and then a warm water bath (37°C). The lipid mixture was then extruded through the mini-extruder 10 times through two stacked 0.1 µm pore-size filters. Free calcein was removed by centrifugation (10, 000×g, 10 min) three times and washing with 10 mM Tris, 100 mM NaCl buffer (pH 7.4). Standards of phosphorus (inorganic P; Pi) were prepared (0.05–1.5 mg/mL) using KH2PO4 and read at 820 nm and a linear standard curve was generated (Figure S1 in File S1). The phospholipid concentration of the vesicle preparations was determined by a total phosphorus assay. The assay reagent was prepared fresh by mixing 1 part of 1% ascorbic acid with 6 parts of 0.42% ammonium molybdate•4H2O in H2SO4 and stored on ice. 7 µL of it was added to 3 µL of vesicle suspensions and incubated for 20 min at 45°C. […] The standard curve of phosphorus standards (Figure S1 in File S1) was used to determine the Pi concentration in a LUV preparation, and this was converted to phospholipid concentration (Table S1 in File S1) to adjust the preparations to the required 10 µM phospholipid concentration prior to peptide treatment.
(§2) The calcein-filled LUVs were diluted with 10 mM Tris, 100 mM NaCl buffer (pH 7.4) to a final phospholipid concentration of 10 µM. The experiments were performed in a Varian Cary Eclipse fluorescence spectrophotometer with excitation and emission wavelengths of 496 nm and 515 nm, slit widths of […] and a PMT detector of 600 V. The peptides (PuroA, Pina-M, Pina-W→F and PuroB) were added to LUVs to a final peptide concentration of 8–125 µg/mL in 100 µL volumes and the fluorescence (F) monitored for 5 min at 60 s intervals. The total calcein fluorescence (FT) was determined by addition of 1.0% Triton X100. The dye leakage was calculated as % Leakage = ((F – F0)/(FT – F0)), F0 being fluorescence of each sample at T = 0.

[4] = Calcein dye leakage from mammalian-mimicking LUVs; type: biochemical; conditions: positive control, 1.0% Triton X100; average of duplicate experiments
Description: as §1, §2

CC[C@H](C)[C@H](N)C(=O)N[C@@H](CC(C)C)C(=O)N1CCC[C@H]1C(=O)N[C@@H](Cc1c[nH]c2ccccc12)C(=O)N[C@@H](CCCCN)C(=O)N[C@@H](Cc1c[nH]c2ccccc12)C(=O)N1CCC[C@H]1C(=O)N[C@@H](Cc1c[nH]c2ccccc12)C(=O)N[C@@H](Cc1c[nH]c2ccccc12)C(=O)N1CCC[C@H]1C(=O)N[C@@H](Cc1c[nH]c2ccccc12)C(=O)N[C@@H](CCCNC(=N)N)C(=O)N[C@@H](CCCNC(=N)N)C(N)=O [Indolicidin, reference compound]
Peptide concentration inducing gel retardation, Partial [1]: 32 ± 0 µg/mL | Peptide concentration inducing gel retardation, Full [1]: 64 ± 0 µg/mL | Peptide concentration inducing gel retardation, Full ([1]; listed as indolicidin): 64 µg/mL | Minimum peptide concentration inducing filamentation in E. coli (E. coli (ATCC 25922)): 32 ± 0 µg/mL | MIC against S. cerevisiae [2]: 125 µg/mL | % fluorescent cells (propidium iodide uptake) (S. cerevisiae cells): 100% | MIC against E. coli cells (E. coli cells): 32 ± 0 µg/mL (≈ 16.8 µM)

MPLSWFFPRTWGKR-NH2 [GSP-5D, peptide based on the wheat Grain softness protein-1 (Gsp-1-5D)]
Peptide concentration inducing gel retardation, Partial [1]: 32 ± 0 µg/mL | Peptide concentration inducing gel retardation, Full [1]: 64 µg/mL and 64 ± 0 µg/mL | MIC against E. coli cells (E. coli cells): 64 ± 0 µg/mL

Triton x100 [reference compound]
% Calcein leakage from DOPC:DOPG LUVs [3]: 99.0% | % Calcein leakage from DOPC LUVs [4]: 99.0%
